Article PMC6441019, “Prospective discovery of small molecule enhancers of an E3 ligase-substrate interaction” (Nature Communications, 2019)

Experiments:
[1] = molecular target: T1, Ser33/S37A β-catenin peptide binding to β-TrCP (Homo sapiens, UniProt P35222+Q9Y297, S37A); assay: TR-FRET peptide binding assay, unphosphorylated Ser33/S37A peptide
T1 construct: titrating BODIPY-FL-labeled β-catenin peptides (residues 17-48) against 300 pM β-TrCP; 6xHis-SMT3 (N, cleaved yes); made in house; host or cells: E. coli (co-expressed with BirA)
T1 sequence (Q9Y297 1-569 isoform Q9Y297-2, stated change not applied): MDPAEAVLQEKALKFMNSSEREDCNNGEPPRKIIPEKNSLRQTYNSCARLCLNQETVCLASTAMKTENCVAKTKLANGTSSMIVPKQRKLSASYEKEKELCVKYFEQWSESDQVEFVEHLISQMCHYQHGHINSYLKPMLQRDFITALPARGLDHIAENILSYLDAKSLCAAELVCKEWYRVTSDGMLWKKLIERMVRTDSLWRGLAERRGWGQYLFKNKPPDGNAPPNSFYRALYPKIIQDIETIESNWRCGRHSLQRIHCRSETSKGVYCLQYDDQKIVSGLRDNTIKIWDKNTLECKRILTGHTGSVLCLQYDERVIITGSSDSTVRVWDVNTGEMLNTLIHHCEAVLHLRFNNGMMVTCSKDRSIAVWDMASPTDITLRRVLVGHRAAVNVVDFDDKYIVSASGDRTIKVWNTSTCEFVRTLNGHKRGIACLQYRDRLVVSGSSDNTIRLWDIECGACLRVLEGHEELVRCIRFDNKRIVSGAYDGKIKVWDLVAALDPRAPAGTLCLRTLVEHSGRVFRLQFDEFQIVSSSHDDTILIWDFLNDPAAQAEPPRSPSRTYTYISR
T1 sequence (P63208 whole entry partner, the tested form may be a part): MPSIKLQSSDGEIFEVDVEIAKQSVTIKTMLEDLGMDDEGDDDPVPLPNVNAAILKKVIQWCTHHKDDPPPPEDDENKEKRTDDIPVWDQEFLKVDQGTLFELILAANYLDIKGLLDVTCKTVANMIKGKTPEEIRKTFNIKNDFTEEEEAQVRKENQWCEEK
T1 sequence (P35222 17-48 S37A limits assumed): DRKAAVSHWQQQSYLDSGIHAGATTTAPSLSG
Method: (§1) Compounds were incubated in a 20 μl reaction volume with 300 pM biotinylated β-TrCP/Skp1 preincubated with 1.2 nM terbium-coupled streptavidin (Cisbio) and BODIPY-FL labeled β-catenin peptides (see figure legends for peptide details) in a white 384-well microplate (Perkin Elmer ProxiPlate), using a PBS buffer containing 0.01% Triton X-100 and 2 mM DTT with 2% final DMSO. […] Following 1-h incubation, plates were read for TR-FRET signal after excitation at 320 nm and read at 520 and 620 nm using an EnVision plate reader (Perkin Elmer). TR-FRET signal was calculated using a 520/620 nm ratio. Binding and enhancement data were fit to a standard Hill equation (Y = Bmin + (Bmax − Bmin)(X^h)/(X^h + EC50^h)) in Prism (GraphPad). Errors are standard error of the fit.

[2] = molecular target: T2, S33E/S37A β-catenin peptide binding to β-TrCP (Homo sapiens, UniProt P35222+Q9Y297, S33E/S37A); assay: TR-FRET peptide binding assay, S33E/S37A peptide; conditions: read-out: binding affinity of S33E/S37A peptide
T2 construct: titrating BODIPY-FL-labeled β-catenin peptides (residues 17-48) against 300 pM β-TrCP; 6xHis-SMT3 (N, cleaved yes); made in house; host or cells: E. coli (co-expressed with BirA)
T2 sequence (Q9Y297 1-569 isoform Q9Y297-2, stated change not applied): as the sequence (Q9Y297 1-569 isoform Q9Y297-2, stated change not applied) above
T2 sequence (P63208 whole entry partner, the tested form may be a part): as the sequence (P63208 whole entry partner, the tested form may be a part) above
T2 sequence (P35222 17-48 S33E/S37A limits assumed): as the sequence (P35222 17-48 S37A limits assumed) above, with S17E counted along it
Method: as §1

[3] = molecular target: T3, Ser33/S37A β-catenin peptide ubiquitylation by SCFβ-TrCP (Homo sapiens, UniProt P35222+Q9Y297, S37A); assay: In vitro ubiquitylation of Ser33/S37A β-catenin peptide; assay type: biochemical
T3 construct: Ubiquitylation of Ser33/S37A β-catenin peptide (residues 17–60) by SCF^β-TrCP; 6xHis-SMT3 (N, cleaved yes); made in house; host or cells: E. coli (β-TrCP1/Skp1); E. coli or SF9 (Cul1-Rbx1)
T3 sequence (Q9Y297 1-569 isoform Q9Y297-2, stated change not applied): as the sequence (Q9Y297 1-569 isoform Q9Y297-2, stated change not applied) above
T3 sequence (P63208 whole entry partner, the tested form may be a part): as the sequence (P63208 whole entry partner, the tested form may be a part) above
T3 sequence (Q13616 whole entry partner, the tested form may be a part): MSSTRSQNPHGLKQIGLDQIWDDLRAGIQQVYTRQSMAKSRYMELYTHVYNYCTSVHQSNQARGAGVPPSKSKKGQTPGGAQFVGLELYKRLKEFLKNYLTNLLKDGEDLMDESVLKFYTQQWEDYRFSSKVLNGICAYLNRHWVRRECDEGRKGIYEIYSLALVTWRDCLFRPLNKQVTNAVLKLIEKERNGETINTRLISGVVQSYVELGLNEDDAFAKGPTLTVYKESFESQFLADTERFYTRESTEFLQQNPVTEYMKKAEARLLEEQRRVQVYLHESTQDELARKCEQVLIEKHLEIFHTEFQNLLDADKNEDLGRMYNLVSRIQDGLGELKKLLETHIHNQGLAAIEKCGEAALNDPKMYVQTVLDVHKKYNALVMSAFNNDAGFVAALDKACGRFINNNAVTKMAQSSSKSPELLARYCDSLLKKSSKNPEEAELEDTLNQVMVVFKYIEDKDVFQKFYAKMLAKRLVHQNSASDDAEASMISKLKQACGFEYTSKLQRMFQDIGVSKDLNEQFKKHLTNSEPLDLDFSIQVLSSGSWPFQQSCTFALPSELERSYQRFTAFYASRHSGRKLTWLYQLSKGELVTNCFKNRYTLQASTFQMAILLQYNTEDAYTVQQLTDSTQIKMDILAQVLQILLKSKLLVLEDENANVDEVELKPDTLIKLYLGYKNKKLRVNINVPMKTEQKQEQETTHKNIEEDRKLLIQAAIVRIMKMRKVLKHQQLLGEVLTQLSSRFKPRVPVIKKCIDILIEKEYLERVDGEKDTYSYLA
T3 sequence (P62877 whole entry partner, the tested form may be a part): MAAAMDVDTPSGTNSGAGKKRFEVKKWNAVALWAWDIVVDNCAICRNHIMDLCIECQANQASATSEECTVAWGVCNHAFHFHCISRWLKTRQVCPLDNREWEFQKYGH
T3 sequence (Q15843 1-76 partner limits assumed): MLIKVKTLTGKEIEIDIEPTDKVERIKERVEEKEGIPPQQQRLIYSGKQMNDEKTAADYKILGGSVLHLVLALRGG
T3 sequence (P35222 17-60 S37A limits assumed): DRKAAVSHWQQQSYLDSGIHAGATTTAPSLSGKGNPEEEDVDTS
Method: (§2) Four micromolar of fluorescently-labeled β-catenin peptide (residues 17–60) were ubiquitylated in a buffer containing 25 mM Tris Cl (pH 7.5), 50 mM NaCl, 5 mM MgCl2, 2 mM ATP, and 1 mM DTT at room temperature in the presence of 62.5 μM Ubiquitin, 125 nM Ube1, 1.75 μM Cdc34A, and 100 nM neddylated SCF^β-TrCP in the presence or absence of compound (as indicated). Typically, individual reaction mixes with either Ubiquitin, Ube1 and Cdc34A or β-catenin, SCF^β-TrCP and compound were preincubated and subsequently mixed to initiate β-catenin ubiquitylation. Reactions were quenched by SDS loading buffer, resolved by SDS-PAGE and imaged for fluorescence. For full length β-catenin protein ubiquitylation 400 nM β-catenin and 400 nM SCF^β-TrCP were used instead.

[4] = molecular target: T4, full-length S33E/S37A β-catenin protein ubiquitylation by SCFβ-TrCP (Homo sapiens, UniProt P35222+Q9Y297, S33E/S37A); assay: In vitro ubiquitylation of full-length S33E/S37A β-catenin protein; assay type: biochemical
T4 construct: 6xHis-SMT3 (N, cleaved yes); host or cells: HEK293T (β-catenin); E. coli (β-TrCP1/Skp1); E. coli or SF9 (Cul1-Rbx1)
T4 sequence (Q9Y297 1-569 isoform Q9Y297-2, stated change not applied): as the sequence (Q9Y297 1-569 isoform Q9Y297-2, stated change not applied) above
T4 sequence (P63208 whole entry partner): as the sequence (P63208 whole entry partner, the tested form may be a part) above
T4 sequence (Q13616 whole entry partner): as the sequence (Q13616 whole entry partner, the tested form may be a part) above
T4 sequence (P62877 whole entry partner): as the sequence (P62877 whole entry partner, the tested form may be a part) above
T4 sequence (Q15843 1-76 partner limits assumed): as the sequence (Q15843 1-76 partner limits assumed) above
T4 sequence (P35222 whole entry S33E/S37A): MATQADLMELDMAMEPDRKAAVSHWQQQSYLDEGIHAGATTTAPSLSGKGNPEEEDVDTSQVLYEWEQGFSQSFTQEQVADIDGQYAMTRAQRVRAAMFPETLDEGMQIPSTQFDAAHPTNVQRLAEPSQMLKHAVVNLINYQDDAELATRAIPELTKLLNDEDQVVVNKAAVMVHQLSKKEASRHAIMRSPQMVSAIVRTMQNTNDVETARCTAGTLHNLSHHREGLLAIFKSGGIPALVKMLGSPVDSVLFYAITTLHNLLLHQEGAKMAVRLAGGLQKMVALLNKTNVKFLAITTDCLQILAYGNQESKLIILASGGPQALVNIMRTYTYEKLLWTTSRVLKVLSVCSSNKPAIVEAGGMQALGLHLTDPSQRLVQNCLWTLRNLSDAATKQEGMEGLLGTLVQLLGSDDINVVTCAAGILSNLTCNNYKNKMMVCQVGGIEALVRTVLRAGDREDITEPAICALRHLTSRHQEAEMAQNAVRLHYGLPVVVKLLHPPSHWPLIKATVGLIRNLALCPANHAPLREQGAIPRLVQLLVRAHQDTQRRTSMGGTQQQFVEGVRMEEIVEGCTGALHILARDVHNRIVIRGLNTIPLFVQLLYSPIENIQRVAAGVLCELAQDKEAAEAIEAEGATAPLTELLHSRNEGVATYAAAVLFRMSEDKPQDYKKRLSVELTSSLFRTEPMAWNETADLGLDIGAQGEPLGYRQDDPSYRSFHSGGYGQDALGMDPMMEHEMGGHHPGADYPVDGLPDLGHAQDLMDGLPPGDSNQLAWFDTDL
Method: as §2

[5] = molecular target: T5, S33E/S37A mutant β-catenin (Homo sapiens, UniProt P35222+Q9Y297, S33E/S37A); assay: β-catenin degradation in HEK293T cells stably expressing S33E/S37A β-catenin; assay type: cell-based; conditions: HEK293T stable line, 6 h, western
T5 construct: Full-length β-catenin (Myc/FLAG-tagged; Origene); expressed in transfected cells
T5 sequence (P35222 whole entry S33E/S37A): as above
T5 sequence (Q9Y297 whole entry, stated change not applied): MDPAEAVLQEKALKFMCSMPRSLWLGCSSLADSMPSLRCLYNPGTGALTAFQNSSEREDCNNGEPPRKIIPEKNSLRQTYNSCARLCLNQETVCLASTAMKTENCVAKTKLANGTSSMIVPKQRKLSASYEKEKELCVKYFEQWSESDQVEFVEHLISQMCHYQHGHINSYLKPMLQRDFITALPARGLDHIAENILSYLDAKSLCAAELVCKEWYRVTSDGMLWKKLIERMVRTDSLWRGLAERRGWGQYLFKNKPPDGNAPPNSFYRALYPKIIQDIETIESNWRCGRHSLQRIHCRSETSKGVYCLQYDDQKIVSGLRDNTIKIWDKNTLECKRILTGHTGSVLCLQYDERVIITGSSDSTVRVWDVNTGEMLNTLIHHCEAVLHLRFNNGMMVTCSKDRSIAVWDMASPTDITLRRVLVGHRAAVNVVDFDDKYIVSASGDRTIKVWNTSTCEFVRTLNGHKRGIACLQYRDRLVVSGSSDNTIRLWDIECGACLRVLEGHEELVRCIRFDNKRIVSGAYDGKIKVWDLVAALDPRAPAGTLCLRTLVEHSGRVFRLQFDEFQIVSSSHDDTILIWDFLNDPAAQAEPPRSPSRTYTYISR
T5 sequence (P63208 whole entry partner): as the sequence (P63208 whole entry partner, the tested form may be a part) above
T5 sequence (Q13616 whole entry partner): as the sequence (Q13616 whole entry partner, the tested form may be a part) above
T5 sequence (P62877 whole entry partner): as the sequence (P62877 whole entry partner, the tested form may be a part) above
T5 sequence (Q15843 1-76 partner limits assumed): as the sequence (Q15843 1-76 partner limits assumed) above
Method: HEK293T cells were plated in a 10 cm dish in regular growth media (DMEM + 10% FBS) and allowed to adhere to the plate overnight. The following day, cells were transfected with S33E/S37 β-catenin using FuGeneHD transfection reagent. Transfected cells were then selected with media containing 700 μg/ml Geneticin. A pooled population of selected cells were used for all described experiments.
HEK293T cells expressing S33E/S37A β-catenin were plated in six-well plates at a density of 9 × 10^5 cells/well. The following day, cells were incubated with compounds diluted in regular growth media to the appropriate concentration. The final concentration of DMSO for all cell treatments was kept at 0.5% or less. Cell treatments with the Nedd8 inhibitor (MLN4924) and the proteasome inhibitor (MG132) were performed at a final concentration of 5 μM and 10 μM respectively. Cycloheximide treatment was performed at a final concentration of 100 μg/ml.

Structure (SMILES): N#Cc1cccc2c1CN(C(=O)c1c(Sc3c(Cl)cccc3Cl)cc(C(F)(F)F)[nH]c1=O)C2 [NRX-252114]
- enhancement in PPI binding affinity ([1]; 20 μM NRX-252114): > 500 fold
- Kd ([1]; read-out: binding affinity of non-phosphorylated peptide): 180 nM
- Kd [2]: 6 nM
- ubiquitylation of unphosphorylated Ser33/S37A β-catenin peptides [3]: potentiates the ubiquitylation
- ligand concentration at which ubiquitin chain formation resembles WT β-catenin protein [4]: ≥ 10 µM
- enhancement of ubiquitylation of S33E/S37A β-catenin protein ([4]; varying concentration): markedly enhances
- concentration at which degradation of S33E/S37A mutant β-catenin starts [5]: ~ 50 μM
